Source: patent US20080287544A1, “Method for Screening Substance by Measuring PPAR DELTA Activating Effect and Agent” (Teijin Limited, priority 2001, published 2008)

Legend:
[1] = test system: UCP2; conditions: J. Biol. Chem. 276, 10853-10860 (2001); cited from earlier work
[2] = test system: human white adipocytes; assay: Free fatty acid β-oxidation in human white adipocytes ([9,10(n)-3H]palmitic acid, 3H2O release); format: cell-based; conditions: 10 μM, 48 hr, vs DMSO control
Procedure: After human fully differentiated white adipocytes had been prepared in the same manner as in Example 1, the supernatant was removed, and 500 μl of a medium which had been prepared by adding adequate amounts of oleic acid and palmitic acid to an adipocyte medium so that their concentrations were 0.67 mM and 0.33 mM, respectively, was added. Various kinds of test compounds were added to the medium in such a manner that their final concentrations were 10 μM, and subsequently, [9,10(n)-3H]palmitic acid (manufactured by Amersham Pharmacia, final concentration of 1 μCi/ml) was added to each well, and the cells were cultured at 37° C. for 48 hr. The test compounds were YM-16638 of a PPAR δ ligand, WY14643 of a PPAR α ligand, L755,507 of a β3 adrenergic receptor agonist and Rosiglitazone of a PPAR γ ligand. A control was prepared by adding DMSO, which was the solvent for the test compounds, in such a manner that the final concentration was 0.5%, and it was cultured in the same manner as the test compounds. In order to prevent the evaporation of ^3H2O produced by β-oxidation of the [9,10(n)-^3H]palmitic acid by the cells during culture, the culture plates were sealed with mini-culture filters (MS-30055) manufactured by Sumitomo Bakelite Co. Ltd.
After 48-hour culture, 200 μl of the supernatant of the medium was transferred to a 1.5-ml Eppendorf tube, 50 μl of 50% trichloroacetic acid was added, the tube was held on ice for 30 min to produce precipitates, and the mixture was centrifuged for 10 min at 15,000 rpm. Subsequently, in a 20-ml glass vial into which 500 μl of distilled water had been placed in advance, a cap-free 1.5-ml Eppendorf tube was placed, the total amount of the supernatant obtained above was placed into this Eppendorf tube, and the vial was tightly sealed with a polypropylene packing-attached lid. […] Into the ^3H2O-containing distilled water remaining in the vial, 5 ml of a liquid scintillation cocktail (Ultima Gold, manufactured by Packard) was added, and radioactivity was measured after sufficient mixing.

[3] = test system: UCP1; assay: UCP1 expression-enhancing effect in skeletal muscle cells or adipocytes; format: cell-based

SMILES | expression of UCP2 [1] | enhancement of β-oxidation in the cells [2] | UCP1 expression-enhancing effect [3]
CCCCC/C=C\C/C=C\C/C=C\C/C=C\CCCC(=O)O [arachidonic acid] | increase the expression of UCP2 | – | –
CCCc1c(OCCCOc2ccc(OCC(=O)O)cc2)ccc(C(C)=O)c1O [L-165041, 4-(3-(2-propyl-3-hydroxy-4-acetyl-phenoxy)propyloxy)-phenoxyacetic acid] | increase the expression of UCP2 | – | –
Cc1cccc(Nc2cc(Cl)nc(SCC(=O)O)n2)c1C [WY14643] | – | no enhancement | hardly exhibit a UCP1 expression enhancing effect
CC#CCC(C)[C@H](O)/C=C/[C@@H]1[C@H]2C/C(=C/CCCC(=O)O)C[C@H]2C[C@H]1O (stereo partly drawn) [Iloprost, 5-{(E)-(1S,5S,6R,7R)-7-hydroxy-6-[(E)-(3S,4RS)-3-hydroxy-4-methyl-5-octen-6-inyl]-bicyclo[3.3.0]-octan-3-ylidene} pentenoic acid] | – | – | had a UCP1 expression-enhancing effect
CCCCCCNC(=O)Nc1ccc(S(=O)(=O)Nc2ccc(CCNC[C@H](O)COc3ccc(O)cc3)cc2)cc1 [L755,507] | – | no enhancement | –
CN(CCOc1ccc(CC2SC(=O)NC2=O)cc1)c1ccccn1 (stereo not drawn) [Rosiglitazone] | – | 15% | –
CCCCC[C@H](O)/C=C/[C@@H]1[C@H]2C/C(=C/CCCC(=O)O)C[C@H]2C[C@H]1O [carbaprostacyclin, 6,9 α-methylene-11 α, 15S-dihydroxy-prosta-5E, 13E-dien-1-oic acid] | increase the expression of UCP2 | – | had a UCP1 expression-enhancing effect
